Laboratory results from patent US20100160251A1, “IMIDAZO COMPOUNDS” (priority 2006, published 2010).

Tested on: γδT lymphocyte
Experiment: Induction of γδT lymphocyte proliferation, human peripheral blood cells, BrdU labelling after 3 days of culture
Assay type: cell-based
Method: The activity on γδT lymphocyte proliferation is tested in the following way: human peripheral blood cells are cultured in the presence of an RPMI-type culture medium supplemented with L-glutamine (2 mM), penicillin/streptomycin (50 μg/50 IU/ml) and foetal calf serum (10%). The C-glycoside derivatives are added at various concentrations (10 to 0.05 mM), along with phytohemagglutin (PHA at […]), a positive control for lymphocyte proliferation.

CC(=O)C[C@H]1O[C@H](CO)[C@@H](O[C@@H]2O[C@H](CO)[C@H](O)[C@H](O)[C@H]2O)[C@H](O)[C@H]1O [Compound 1, 1-(C-β-D-lactopyranosyl)propan-2-one]
% stimulation relative to the control (concentration 0.05 (mM)): 100% | % stimulation relative to the control (concentration 0.1 (mM)): 110% | % stimulation relative to the control (concentration 0.5 (mM)): 82% | % stimulation relative to the control (concentration 1 (mM)): 108% | % stimulation relative to the control (concentration 5 (mM)): 169% | % stimulation relative to the control (concentration 10 (mM)): 214%
